# Like-named read-outs stand apart in the source and are kept apart here.
# Columns and labels:
# [1] = system: BxPC3 cells; experiment: Cell Titer-Glo anti-proliferation, BxPC3 cells; type: cell-based, human; conditions: 3 days, read-out: Anti-proliferative activity BxPC3 (IC50 class)
# How it was run: (§1)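 Each line was exposed to graded compound concentrations for 3 days at 37 °C, 5% CO2, with final DMSO at 0.2%. Viability was measured by Cell Titer-Glo luminescence, with untreated cells as the maximum and medium as the minimum signal. IC50 came from a variable-slope log(inhibitor)-response fit.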
# [2] = system: HT-29 cells; experiment: Cell Titer-Glo anti-proliferation, HT-29 cells; type: cell-based, human; conditions: 3 days, read-out: Anti-proliferative activity HT-29 (IC50 class)
# How it was run: as §1
# [3] = system: OVCAR-3 cells; experiment: Cell Titer-Glo anti-proliferation, OVCAR-3 cells; type: cell-based; conditions: 3 days, read-out: Anti-proliferative activity OVCAR-3 (IC50 class)
# How it was run: as §1
# [4] = Metabolic stability in liver microsomes, mouse; type: in vitro ADME
# Description: (§2) Test Example 3: Evaluation of the Metabolic Stability of Liver Microsomes (Mouse and Human) In Vitro Microsomes were taken out from the −80° C. refrigerator, rapidly melted in a 37° C. water bath and placed on ice until ready to use. The test article was diluted with DMSO to prepare a 10 mM stock solution, and then diluted with acetonitrile to a 0.5 mM secondary stock solution. […] NADPH was diluted with Buffer C to a working solution of 6 mM for the starter solution. An acetonitrile solution containing an internal standard was prepared as the precipitant, and Verapamil-HCl was chosen as the internal standard at a concentration of 4 ng/ml. […] A separate plate with pointed bottom wells, noted as a precipitation plate, was added with 135 μL precipitant per well; 0 h samples were transferred to the plate after 10 min incubation and 15 μL of starter solution was added; the plate was placed on ice before centrifugation. The diluted starter solution was added in sufficient quantity to the dispensing plate to facilitate the multichannel pipette aspiration operation. The reaction was carried out on a warm incubation shaker and 15 μL of starter solution/sample is added to the plate using a multichannel pipette. The reaction was mixed with a slight shake to initiate the reaction, which was accurately timed and recorded using a timer; After the reaction time had elapsed, all the solution in the plate was aspirated using the multichannel pipette and added to the precipitation plate to terminate the reaction at that point in time. After all reactions had been terminated, the plates were shaken for ten minutes on a plate shaker at 600 rpm to precipitate the protein. The plate was centrifuged at 4° C. for 15 minutes at maximum rpm. 80 μL of supernatant was taken, 320 μL of pure water was added and mixed for LC-MS analysis.
# [5] = Metabolic stability in liver microsomes, human; type: in vitro ADME
# Description: as §2
# [6] = Metabolic stability in liver microsomes, rat; type: in vitro ADME
# Description: as §2, with “Microsomes” for “Test Example 3: Evaluation of the Metabolic Stability of Liver Microsomes (Mouse and Human) In Vitro Microsomes”
# [7] = Metabolic stability in liver microsomes, dog; type: in vitro ADME
# Description: as §2, with “Microsomes” for “Test Example 3: Evaluation of the Metabolic Stability of Liver Microsomes (Mouse and Human) In Vitro Microsomes”
# [8] = Metabolic stability in liver microsomes, monkey; type: in vitro ADME
# Description: as §2, with “Microsomes” for “Test Example 3: Evaluation of the Metabolic Stability of Liver Microsomes (Mouse and Human) In Vitro Microsomes”
# [9] = system: plasma protein; experiment: Plasma protein binding (equilibrium dialysis), rat; type: in vitro ADME; conditions: 1 μM, 5 h dialysis
# [10] = target: CYP3A4 (Homo sapiens (Human), UniProt P08684); experiment: Cytochrome P450 inhibition (fluorescence), CYP3A4; type: in vitro ADME
# Description: (§3) Enzymatic experiments were performed to quantify the inhibition of CYP450 enzyme activity of each isoform of CYP450 by small molecule inhibitors through fluorescence generated by the oxidation of the substrate by cytochrome P450. […] The Solution B composition used for the experiment was: 40 U/mL G6PDH (Sigma-aldrich, Cat #G6378). The substrate mix was 0.05× Solution A, 0.01× Solution B, 50 mM Potassium Phosphate, 0.01 mM BOMCC/0.01 mM EOMCC/0.001 mM DBOMF. […] The data were analyzed and processed using GraphPad Prism 6 software to obtain IC50 values.
# [11] = target: CYP1A2 (Homo sapiens (Human), UniProt P05177); experiment: Cytochrome P450 inhibition (fluorescence), CYP1A2; type: in vitro ADME
# Description: as §3
# [12] = target: CYP2C9 (Homo sapiens (Human), UniProt P11712); experiment: Cytochrome P450 inhibition (fluorescence), CYP2C9; type: in vitro ADME
# Description: as §3
# [13] = target: CYP2D6 (Homo sapiens (Human), UniProt P10635); experiment: Cytochrome P450 inhibition (fluorescence), CYP2D6; type: in vitro ADME
# Description: as §3
# [14] = target: CYP2C8 (Homo sapiens (Human), UniProt P10632); experiment: Cytochrome P450 inhibition (fluorescence), CYP2C8; type: in vitro ADME
# Description: as §3
# [15] = system: plasma protein; experiment: Plasma protein binding (equilibrium dialysis), mouse; conditions: mouse plasma, 1 μM, 5 h dialysis
# Description: Sample preparation: The compound was dissolved in DMSO to a stock solution of 10 mM, then the compound was diluted with PBS to a secondary stock solution of 0.02 mM, and then the above 0.02 mM was diluted to 1 μM using blank plasma, which was the sample to be incubated.
# Dialysis set-up preparation: 400 μL of blank PBS was first added to the white wells of the equilibrated dialysis plate and 200 μL of the configured plasma sample was added to the red wells, and the dialysis plate was sealed with a sealing film.
# Recovery plate preparation: Two 96-well deep-well plates, labelled T0 and T5, were prepared and all plasma samples were added at n=2. 300 μL of acetonitrile (Verapamil-HCl, 4 ng/mL) was added directly to the TO plate, followed by 50 μL of blank PBS mix well for 5 min and left to stand in a 4° C. refrigerator until the end of the incubation.
# Experimental Operation: The dialysis device and the T5 plate were incubated together for 5 h in a microplate thermostatic shaker (37° C., using 300 rpm or minimum speed). At the end of the incubation, 300 μL of acetonitrile (Verapamil-HCl, 4 ng/mL) was added and 50 μL of PBS solution was added. At the end of the dialysis incubation, a new 96-well deep well plate was taken. Add 50 μL of plasma well sample to the corresponding position of the 96-well plate, 300 μL of acetonitrile and 50 μL of blank PBS; take 50 μL of buffer well sample to the corresponding position of the 96-well plate, then add 300 μL of acetonitrile and 50 μL of blank plasma. Add 300 μL of acetonitrile (Verapamil-HCl, 4 ng/mL) to the plasma-containing wells of the T5 plate, and then 50 μL of PBS solution was added. Shake for 5 min to fully precipitate the proteins and centrifuge at 20,000 g for 10 min at 4° C. Add 200 μL of supernatant to 200 μL of pure water, mix well and perform LC-MS/MS analysis.
# • Plasma protein binding rate=[(Rpe−Rb)/Rpe]×100% • Recovery=[(Rpe+Rb)/R5 h]×100% • Stability=(R5/R0)×100%
# • Rpe=ratio of plasma-side testing sample peak area to internal standard • Rb=ratio of buffer side testing sample peak area to internal standard • R5=ratio of incubator stability sample peak area to internal standard • R0=ratio of refrigerator stability sample peak area to internal standard
# [16] = target: hERG potassium channel (Homo sapiens (Human), UniProt Q12809); experiment: hERG potassium channel inhibition, patch clamp in CHO hERG cells
# [17] = target: Wee1 protein (Homo sapiens (Human), UniProt P30291); experiment: TR-FRET binding of compound to Wee1 protein and Tracer 178; conditions: Tracer 178, read-out: IC50, inhibitory activity against Wee1 kinase
# Description: First, solutions of the compounds in different concentration gradients were prepared. The compounds were dissolved in DMSO and the compounds were diluted 4 folds with a total of 10 dose points and 2 parallel replicates for each concentration.
# The IC50 for inhibition of enzyme activity by the compounds was then calculated using GraphPad Prism 6 and fitted with a log (inhibitor) vs. response-Variable slope mode. The fitting equation was: Y=Bottom+(Top−Bottom)/(1+10^((Log IC50−X)*HillSlope)), where Y represents the percentage of residual enzyme activity known and X represents the known concentration of compound after the logarithm.
# [18] = target: CYP2C19 (Homo sapiens (Human), UniProt P33261); experiment: Cytochrome P450 inhibition (fluorescence), CYP2C19; type: in vitro ADME
# Description: as §3
# [19] = system: HUVEC cells; experiment: Cell Titer-Glo anti-proliferation, normal cells HUVEC; type: cell-based
# Description: (§4) Compound solutions of different concentration gradients were prepared. […] The cell growth group without compound was used as a positive control (maximum signal control) and the medium was used as a negative control (minimum signal control), while ensuring that the final level of DMSO in each reaction well was 0.2%. After removing the medium from the 384-well plate, 25 μl of the configured compound at different concentrations was transferred into the well plate and the compound and cells were incubated in the cell incubator at 37° C. with 5% CO2 for 3 days.
# (§5) The 384-well plates were removed from the cell incubator and allowed to equilibrate for 1 h to room temperature. 25 μl of Cell Titer-Glo assay was added to each well, lysed on a shaker for 2 min and then read out (Luminescence) using a BMG PHERAStar after 10 min incubation. Calculate the inhibition rate from the luminescence signal.
# (§6) to calculate the rate of inhibition of the cells by different concentrations of the compounds. The IC50 of the compound on cell activity inhibition was calculated by fitting a log(inhibitor) vs. response-Variable slope model to GraphPad Prism 6. The fitted equation was: Y=Bottom+(Top-Bottom)/(1+10^((Log IC50−X)*HillSlope)), where Y represents the rate of inhibition and X represents the concentration of the known compound after Log.
# (§7) B. Evaluation of the Anti-Proliferative Effect of Compounds by the Cell Titer-Glo Method on Normal Cells HUVEC and HK2.
# (§8) The test method is the same as the anti-proliferative activity evaluation of tumor cells.
# [20] = system: HK2 cells; experiment: Cell Titer-Glo anti-proliferation, normal cells HK2; type: cell-based
# Description: as §4, §5, §6, §7, §8
# [21] = target: CYP 2B6 (Homo sapiens (Human), UniProt P20813); experiment: Cytochrome P450 inhibition, CYP2B6; type: in vitro ADME
# Description: as §3
# [22] = Saturated solubility in buffer at different pH; type: physicochemical
# Description: The compound was placed in a buffer solution and shaken at constant temperature for 24 h. […] Chromatographic conditions: C18 column, mobile phase A: 0.02 M potassium dihydrogen phosphate:acetonitrile=90:10, mobile phase B: acetonitrile; V: 1.0 ml/min, T: 35° C., λ: 210 nm.
# [23] = system: Caco-2 cells; experiment: Membrane permeability in Caco-2 model; type: in vitro ADME
# Description: Caco-2 cells were purchased from the American Model Tissue Cell Collection (Rockville, MD). The cell culture medium was modified Eagle's medium (MEM) containing 10% inactivated fetal bovine serum and 1% non-essential amino acids. […] The cells were incubated for 21-28 days after inoculation for transport experiments and the apparent permeability (Papp) of Lucifer Yellow was used to characterize and verify the compactness of the cell monolayer. […] After the incubation, dilute the samples on the apical side and basolateral side, and the concentrations of compounds on the apical and basolateral sides were detected by LC-MS/MS, and the concentrations of the compounds were quantified by standard curve.
# [24] = Toxicity in rats after 14 consecutive days of administration, survival; conditions: 75 mg/kg qd by gavage, 14 days
# CYP2C9, sequence (P11712 whole entry): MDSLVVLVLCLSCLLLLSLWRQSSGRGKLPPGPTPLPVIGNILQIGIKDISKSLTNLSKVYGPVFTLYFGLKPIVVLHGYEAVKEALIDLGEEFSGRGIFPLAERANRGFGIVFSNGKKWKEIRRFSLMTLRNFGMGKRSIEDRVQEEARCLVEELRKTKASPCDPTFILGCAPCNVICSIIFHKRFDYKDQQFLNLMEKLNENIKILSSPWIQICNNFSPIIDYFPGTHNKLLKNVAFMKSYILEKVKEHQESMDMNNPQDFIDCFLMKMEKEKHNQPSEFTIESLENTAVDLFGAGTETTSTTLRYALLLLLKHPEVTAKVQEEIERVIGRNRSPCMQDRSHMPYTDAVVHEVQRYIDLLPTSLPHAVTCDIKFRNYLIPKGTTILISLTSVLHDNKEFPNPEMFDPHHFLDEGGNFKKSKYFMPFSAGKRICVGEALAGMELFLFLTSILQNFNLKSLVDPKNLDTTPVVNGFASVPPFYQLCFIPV
# CYP3A4, sequence (P08684 whole entry, canonical isoform): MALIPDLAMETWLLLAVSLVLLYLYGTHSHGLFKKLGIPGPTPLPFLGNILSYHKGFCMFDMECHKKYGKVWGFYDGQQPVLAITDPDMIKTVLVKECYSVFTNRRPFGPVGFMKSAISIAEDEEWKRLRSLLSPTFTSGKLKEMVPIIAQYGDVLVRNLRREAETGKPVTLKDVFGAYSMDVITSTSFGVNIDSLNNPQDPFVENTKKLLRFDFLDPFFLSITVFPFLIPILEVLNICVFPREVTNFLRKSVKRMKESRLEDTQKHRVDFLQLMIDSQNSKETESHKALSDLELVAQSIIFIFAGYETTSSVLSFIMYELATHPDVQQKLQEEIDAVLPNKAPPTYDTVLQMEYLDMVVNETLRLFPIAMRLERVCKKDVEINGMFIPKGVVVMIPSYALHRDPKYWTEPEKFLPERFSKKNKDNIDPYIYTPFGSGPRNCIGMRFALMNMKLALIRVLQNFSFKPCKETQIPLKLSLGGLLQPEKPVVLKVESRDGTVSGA
# Wee1 protein, sequence (P30291 whole entry): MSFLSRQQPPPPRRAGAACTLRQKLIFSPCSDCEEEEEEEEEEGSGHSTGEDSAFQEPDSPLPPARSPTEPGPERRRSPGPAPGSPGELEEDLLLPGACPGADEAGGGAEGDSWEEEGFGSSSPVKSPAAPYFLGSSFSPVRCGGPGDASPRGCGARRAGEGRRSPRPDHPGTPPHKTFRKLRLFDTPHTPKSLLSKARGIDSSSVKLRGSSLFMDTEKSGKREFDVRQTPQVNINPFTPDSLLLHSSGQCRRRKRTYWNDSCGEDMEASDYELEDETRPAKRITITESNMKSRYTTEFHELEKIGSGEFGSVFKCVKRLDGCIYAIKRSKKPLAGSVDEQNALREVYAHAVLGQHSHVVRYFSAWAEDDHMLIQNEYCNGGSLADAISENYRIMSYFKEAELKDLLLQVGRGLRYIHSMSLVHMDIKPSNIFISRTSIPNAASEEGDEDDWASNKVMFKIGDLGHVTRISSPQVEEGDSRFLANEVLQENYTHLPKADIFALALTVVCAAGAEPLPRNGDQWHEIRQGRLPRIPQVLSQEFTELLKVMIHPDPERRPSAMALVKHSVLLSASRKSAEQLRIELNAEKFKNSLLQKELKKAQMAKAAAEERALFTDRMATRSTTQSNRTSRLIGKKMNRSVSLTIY
# CYP1A2, sequence (P05177 whole entry): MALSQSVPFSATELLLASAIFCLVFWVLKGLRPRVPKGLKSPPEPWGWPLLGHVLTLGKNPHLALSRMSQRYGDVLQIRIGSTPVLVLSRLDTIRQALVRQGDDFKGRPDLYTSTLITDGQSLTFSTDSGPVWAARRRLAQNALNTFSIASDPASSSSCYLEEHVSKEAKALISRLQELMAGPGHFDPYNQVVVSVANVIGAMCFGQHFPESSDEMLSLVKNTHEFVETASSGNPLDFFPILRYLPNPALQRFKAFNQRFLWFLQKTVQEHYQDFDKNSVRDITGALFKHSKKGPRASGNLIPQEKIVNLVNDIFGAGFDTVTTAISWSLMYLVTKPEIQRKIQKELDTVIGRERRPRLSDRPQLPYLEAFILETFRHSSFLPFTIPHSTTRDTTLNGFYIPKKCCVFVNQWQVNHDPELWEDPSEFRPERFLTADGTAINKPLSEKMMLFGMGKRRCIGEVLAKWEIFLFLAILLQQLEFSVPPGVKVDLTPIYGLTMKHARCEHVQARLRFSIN
# CYP2C8, sequence (P10632 whole entry): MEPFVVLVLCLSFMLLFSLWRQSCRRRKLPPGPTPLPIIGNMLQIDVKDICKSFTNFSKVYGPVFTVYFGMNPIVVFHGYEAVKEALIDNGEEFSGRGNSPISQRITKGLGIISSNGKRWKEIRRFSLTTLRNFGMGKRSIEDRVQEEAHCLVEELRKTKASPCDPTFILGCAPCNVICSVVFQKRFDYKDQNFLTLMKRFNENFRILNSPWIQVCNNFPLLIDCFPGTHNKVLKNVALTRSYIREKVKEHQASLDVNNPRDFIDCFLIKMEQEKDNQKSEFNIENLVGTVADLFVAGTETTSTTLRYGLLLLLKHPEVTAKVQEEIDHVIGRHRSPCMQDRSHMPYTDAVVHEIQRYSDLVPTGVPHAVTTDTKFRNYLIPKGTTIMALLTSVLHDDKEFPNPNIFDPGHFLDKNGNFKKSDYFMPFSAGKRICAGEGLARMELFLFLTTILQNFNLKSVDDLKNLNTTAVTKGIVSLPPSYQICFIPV
# hERG potassium channel, sequence (Q12809 whole entry): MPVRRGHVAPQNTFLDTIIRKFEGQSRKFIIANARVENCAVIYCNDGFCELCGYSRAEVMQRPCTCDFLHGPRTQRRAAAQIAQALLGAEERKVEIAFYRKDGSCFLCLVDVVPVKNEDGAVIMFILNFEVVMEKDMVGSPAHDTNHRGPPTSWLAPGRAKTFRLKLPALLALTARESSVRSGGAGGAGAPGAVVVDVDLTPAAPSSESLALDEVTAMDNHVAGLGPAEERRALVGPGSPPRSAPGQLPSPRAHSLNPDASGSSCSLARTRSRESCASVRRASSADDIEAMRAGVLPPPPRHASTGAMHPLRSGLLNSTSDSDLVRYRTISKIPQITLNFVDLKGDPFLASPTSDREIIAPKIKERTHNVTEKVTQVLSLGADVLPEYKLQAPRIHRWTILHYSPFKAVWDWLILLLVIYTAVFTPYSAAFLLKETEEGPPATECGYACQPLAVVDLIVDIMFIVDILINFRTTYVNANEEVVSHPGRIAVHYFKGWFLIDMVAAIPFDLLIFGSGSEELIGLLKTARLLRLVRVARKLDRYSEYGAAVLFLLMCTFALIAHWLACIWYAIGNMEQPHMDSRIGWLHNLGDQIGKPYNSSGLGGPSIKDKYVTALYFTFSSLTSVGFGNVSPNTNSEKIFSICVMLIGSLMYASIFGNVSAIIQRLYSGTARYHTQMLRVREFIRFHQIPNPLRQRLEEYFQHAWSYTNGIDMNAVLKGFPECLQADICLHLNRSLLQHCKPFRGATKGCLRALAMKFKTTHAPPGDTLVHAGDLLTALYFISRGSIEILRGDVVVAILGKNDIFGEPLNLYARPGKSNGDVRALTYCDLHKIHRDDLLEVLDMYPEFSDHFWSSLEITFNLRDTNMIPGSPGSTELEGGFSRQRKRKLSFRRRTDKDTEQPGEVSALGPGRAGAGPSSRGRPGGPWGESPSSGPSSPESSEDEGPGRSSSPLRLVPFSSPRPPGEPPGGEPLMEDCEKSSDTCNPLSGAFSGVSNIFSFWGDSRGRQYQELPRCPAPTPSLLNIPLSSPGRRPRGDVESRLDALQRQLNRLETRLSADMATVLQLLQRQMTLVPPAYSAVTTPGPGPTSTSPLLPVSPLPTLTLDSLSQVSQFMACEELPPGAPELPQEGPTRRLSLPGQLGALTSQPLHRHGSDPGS
# CYP2D6, sequence (P10635 whole entry): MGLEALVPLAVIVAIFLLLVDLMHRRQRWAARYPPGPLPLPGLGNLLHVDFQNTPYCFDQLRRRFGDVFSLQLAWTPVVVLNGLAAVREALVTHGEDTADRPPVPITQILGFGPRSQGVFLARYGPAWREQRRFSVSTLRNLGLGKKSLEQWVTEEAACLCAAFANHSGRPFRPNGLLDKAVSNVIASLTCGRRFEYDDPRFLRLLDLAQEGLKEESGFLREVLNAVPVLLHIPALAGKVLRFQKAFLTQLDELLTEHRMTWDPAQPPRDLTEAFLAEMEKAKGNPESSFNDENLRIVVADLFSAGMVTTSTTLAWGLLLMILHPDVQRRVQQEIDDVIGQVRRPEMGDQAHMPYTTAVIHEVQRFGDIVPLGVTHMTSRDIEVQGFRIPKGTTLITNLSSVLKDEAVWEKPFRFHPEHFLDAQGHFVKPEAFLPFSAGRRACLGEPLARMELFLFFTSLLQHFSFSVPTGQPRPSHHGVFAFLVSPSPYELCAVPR
# CYP2C19, sequence (P33261 whole entry): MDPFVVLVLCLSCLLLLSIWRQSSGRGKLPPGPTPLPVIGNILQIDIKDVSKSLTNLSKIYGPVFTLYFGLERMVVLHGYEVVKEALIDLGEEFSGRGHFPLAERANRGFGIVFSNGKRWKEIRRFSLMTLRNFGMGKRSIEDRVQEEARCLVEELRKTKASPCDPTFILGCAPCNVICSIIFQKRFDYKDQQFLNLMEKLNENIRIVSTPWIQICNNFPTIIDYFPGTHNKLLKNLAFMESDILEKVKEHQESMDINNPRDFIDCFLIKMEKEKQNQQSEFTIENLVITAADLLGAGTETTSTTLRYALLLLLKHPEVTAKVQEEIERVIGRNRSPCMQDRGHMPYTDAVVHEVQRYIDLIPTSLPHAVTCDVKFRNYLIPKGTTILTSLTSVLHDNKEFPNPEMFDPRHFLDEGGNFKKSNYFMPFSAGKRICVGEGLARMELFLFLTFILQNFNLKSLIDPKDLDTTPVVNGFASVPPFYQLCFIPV
IC50 ([10]; read-out: IC50 CYP3A4) [µM],IC50 [11] [µM],IC50 ([12]; read-out: IC50 CYP2C9) [µM],IC50 ([13]; read-out: IC50 CYP2D6) [µM],IC50 ([14]; read-out: IC50 CYP2C8) [µM],Structure (SMILES),IC50 [1] [µM],IC50 [2] [µM],IC50 [3] [µM],T1/2 liver microsomes Mouse [4] [h],T1/2 liver microsomes Human [5] [h],T1/2 liver microsomes Rat [6] [h],T1/2 liver microsomes Dog [7] [h],T1/2 liver microsomes Monkey [8] [h],Plasma Protein binding (PPB) Rat [9] [%],Plasma Protein binding (PPB) Mouse [15] [%],hERG Inhibition ([16]; test concentration 5 μM) [%],hERG Inhibition ([16]; test concentration 20 μM) [%],IC50 [17] [µM],IC50 [19] [µM],IC50 [20] [µM],further results
> 10,> 10,> 10,> 10,> 10,C=CCn1c(=O)c2cnc(Nc3ccc(N4CCC5(CCN(C)CC5)CC4)cc3)nc2n1-c1ccc2c(n1)[C@](C)(O)C1(CC2)CC1 (racemic) [Compound 44],0.1 to 1,0.1 to 1,0.1 to 1,1.05,1.296,>2,0.7135,0.5015,96.98,98.46,77.68 ± 4.16,91.56 ± 2.72,–,–,–,–
–,–,–,–,–,C=CCn1c(=O)c2cnc(Nc3ccc(N4CCN(C)CC4)cc3)nc2n1-c1ccc2c(n1)C(C)(O)C1(CC1)C2 (stereo not drawn) [Compound 3],1 to 2,0.1 to 1,1 to 2,–,–,–,–,–,–,87.75,–,–,0.005 to 0.01,–,–,IC50 [10]: > 10 µM; IC50 ([11]; read-out: IC50 CYP1A2): > 10 µM; IC50 [12]: > 10 µM; IC50 [18]: > 10 µM; IC50 [13]: > 10 µM; IC50 [14]: > 10 µM
> 10,> 10,> 10,> 10,> 10,C=CCn1c(=O)c2cnc(Nc3ccc(N4CCC5(CCN(C)CC5)CC4)cc3)nc2n1-c1ccc2c(n1)[C@H](O)C1(CC2)CC1 [Compound 37b],0.1 to 1,0.1 to 1,0.1 to 1,–,–,–,–,–,–,–,–,–,0.005 to 0.01,> 10,1.53,IC50 ([18]; read-out: IC50 CYP2C19): > 10 µM; IC50 [21]: > 10 µM
–,–,–,–,–,"C=CCn1c(=O)c2cnc(Nc3ccc(N4CCN(C)CC4)cc3)nc2n1-c1ccc2c(n1)[C@@](O)(CC)CC2 [ZnC3, reference compound]",0.1 to 1,0.1 to 1,0.1 to 1,–,–,–,–,–,–,–,7.38 ± 1.59,18.05 ± 7.58,0.01 to 0.1,> 10,0.34,"Saturated solubility pH 5.0 ([22]; pH 5): 0.35 mg/mL; Saturated solubility pH 6.5 ([22]; pH 6.5): 0.59 mg/mL; Saturated solubility pH 7.4 ([22]; pH 7.4): 0.68 mg/mL; Efflux Ration ([23]; Caco2): 35.74; Papp A to B ([23]; Caco2, 10 μM, 90 min): 0.42 10^−6 cm/s; Papp B to A ([23]; Caco2, 10 μM, 90 min): 15.01 10^−6 cm/s; Survival of Rats ([24]; female rats): 1/7; Survival of Rats ([24]; male rats): 2/7"

Structure (SMILES),IC50 ([10]; read-out: IC50 CYP3A4) [µM],IC50 [11] [µM],IC50 ([12]; read-out: IC50 CYP2C9) [µM],IC50 ([13]; read-out: IC50 CYP2D6) [µM],IC50 ([14]; read-out: IC50 CYP2C8) [µM],IC50 [1] [µM],IC50 [2] [µM],IC50 [3] [µM],T1/2 liver microsomes Mouse [4] [h],T1/2 liver microsomes Human [5] [h],T1/2 liver microsomes Rat [6] [h],T1/2 liver microsomes Dog [7] [h],T1/2 liver microsomes Monkey [8] [h],Plasma Protein binding (PPB) Rat [9] [%],Plasma Protein binding (PPB) Mouse [15] [%],hERG Inhibition ([16]; test concentration 5 μM) [%],hERG Inhibition ([16]; test concentration 20 μM) [%],IC50 [17] [µM],IC50 [19] [µM],IC50 [20] [µM],further results
C=CCn1c(=O)c2cnc(Nc3ccc(N4CC5CC(C4)N5C)cc3)nc2n1-c1ccc2c(n1)[C@@](C)(O)C1(CC2)CC1 [Compound 7a],> 10,> 10,> 10,> 10,> 10,0.1 to 1,0.1 to 1,0.1 to 1,1.209,1.057,0.357,1.541,0.2625,94.82,97.21,–,–,0.005 to 0.01,> 10,0.67,–

# Source: patent US20250304587A1, “WEE1 INHIBITOR, PREPARATION THEREFOR AND USE THEREOF” (JIANGSU TASLY DIYI PHARMACEUTICAL CO., LTD., priority 2022, published 2025)
